“Also recorded” adds a separate entry of the source.
Experiments:
RD xenograft = assay: RD rhabdomyosarcoma xenograft model; assay type: in vivo, mice; details: Taxol 30 mg/kg weekly, Abraxane 50 mg/kg weekly
Method: Control mice received saline.
Tumor growth was assessed in RD xenograft model with paclitaxel/Abraxane treatment. In Abraxane treatment group, tumor-bearing mice received Abraxane (50 mg/kg, weekly) treatment. In paclitaxel treatment group, since tumor sizes are reaching the endpoint after 2-week paclitaxel treatment in paclitaxel group, those mice were randomized into two groups with 5 animals in each group on day 15: one group of animals continued receiving 30 mg/kg of paclitaxel and the other group received 50 mg/kg of Abraxane instead.

relapsed RH4 xenografts = assay: Relapsed RH4 xenograft model, re-treatment; assay type: in vivo, mice; details: re-treatment on day 52, 59 and 66, Taxol 30 mg/kg or Abraxane 50 mg/kg
Source text: Tumor growth was monitored.

cleaved caspase-3 = assay: Immunohistochemistry of SK-N-BE(2) xenografts, apoptotic marker; assay type: in vivo, mice; details: different dosages of Abraxane; Taxol 20 mg/kg/weekly; end of study
phospho-histone H3 [1] = assay: Immunohistochemistry of RH4 xenografts, mitotic marker; assay type: in vivo, mice; details: 48 hours after Abraxane 50 mg/kg iv or Taxol 30 mg/kg iv
Source text: Similarly, RH4 xenografts were harvested and analyzed by IHC for phosphor-histone H3.

RH4 xenograft = assay: RH4 rhabdomyosarcoma subcutaneous xenograft model; details: for local relapse-free interval: RH4 model
Method: Briefly, tumor cells were washed three times with HBSS before injection. Mice were given a subcutaneous injection of 1×10^6 tumor cells. Tumor growth was measured weekly in two dimensions using a digital caliper, and tumor volume was calculated as width^2×length×0.5. Once the tumor diameter reached 0.5 cm, mice were randomized into treatment groups with 10 animals in each group. […] Taxol® was administered i.v. at 20 or 30 mg/kg weekly. Control mice received saline. Tumor volume, mouse body weight and signs of animal distress were evaluated twice or three times a week for any potential drug toxicity. Animals were sacrificed once the tumor size reached 1.5 cm^3.
Tumor volume was measured and calculated as width^2×length×0.5. […] Drugs were given on day 52, 59 and 66 with the same schedule and dosage as above. Tumor growth was monitored.

phospho-histone H3 [2] = assay: Immunohistochemistry of SK-N-BE(2) xenografts, mitotic marker; assay type: in vivo, mice; details: different dosages of Abraxane; Taxol 20 mg/kg/weekly; end of study
[3] = system: 143.98.2 osteosarcoma cells; assay type: in vivo; details: nab-paclitaxel 30 mg/kg i.v. days 1-5; gemcitabine 100 mg/kg i.p. twice weekly; p=0.031 combination vs nab-paclitaxel alone
Method: (§1) Briefly, 5×10^6143.98.2 osteosarcoma cells or A673 Ewing's sarcoma cells were suspended in 100 μl PBS and implanted subcutaneously with 33% Matrigel in 5-6 week-old female athymic nu/nu mice. Tumor volume was calculated using the formula L·W2·(π/6), where L=the longest tumor diameter and W=the widest tumor diameter perpendicular to L. When tumors reached 200-300 mm^3, animals were treated with either saline control, nab-paclitaxel 30 mg/kg intravenously on days 1-5 for a single course, gemcitabine 100 mg/kg intraperitoneally twice weekly until death, or the combination of nab-paclitaxel and gemcitabine. Mice were sacrificed once tumors reached 10% body weight (˜2500 mm^3).
(§2) To perform statistical analysis, it was calculated that a sample of 10 mice per group would provide an 80% power to detect a difference in tumor size of 41%, Power was calculated at a significance level of 0.05 using a two-tailed, two sample Student's t-test assuming equal variance. GraphPad Prism 5 software was used to analyze survival by log-rank and tumor growth by two sample Student's t-test.

[4] = system: A673 Ewing's sarcoma cells; assay: A673 Ewing sarcoma subcutaneous xenograft; assay type: in vivo, mice; details: gemcitabine 100 mg/kg i.p. twice weekly with nab-paclitaxel
Method: as §1, §2

[5] = dosing on days 1, 8 and 15, Taxol 30 mg/kg, Abraxane 50 mg/kg

Row | SMILES | tumor growth (tumor volume) (RD xenograft) | response of tumors relapsed after Taxol (paclitaxel) treatment (relapsed RH4 xenografts) | response of tumors relapsed after Taxol (paclitaxel) treatment (relapsed RH4 xenografts; listed as paclitaxel) | apoptotic cell population (cleaved caspase-3 staining) (cleaved caspase-3) | phospho-histone H3 positive cells (phospho-histone H3 [1]) | animals that developed relapsed tumors (RH4 xenograft; 7 animals per group) | tumor growth (tumor volume) (RH4 xenograft; Abraxane 50 mg/kg, Taxol 30 mg/kg i.v. weekly) | local relapse-free interval (RH4 xenograft) | local relapse-free interval (RH4 xenograft; listed as paclitaxel) | mice that died (RH4 xenograft; Taxol 30 mg/kg group, Day 10) | complete regression observed after day (RH4 xenograft; [5]) | time to tumor relapse after complete regression (RH4 xenograft; [5]) | phospho-histone H3 positive cells (phospho-histone H3 [2]) | tumor growth [3] | additive benefit of gemcitabine added to nab-paclitaxel [4]
1 | CC(=O)O[C@H]1C(=O)[C@@]2(C)[C@H]([C@H](OC(=O)c3ccccc3)[C@]3(O)C[C@H](OC(=O)[C@H](O)[C@@H](NC(=O)c4ccccc4)c4ccccc4)C(C)=C1C3(C)C)[C@]1(OC(C)=O)CO[C@@H]1C[C@@H]2O [Taxol®, paclitaxel] | slow the growth of RD tumors, but those tumors grew progressively with no signs of tumor regression; also recorded: significantly inhibited tumor growth | drug resistant against Taxol® | paclitaxel-resistant | only slightly increased apoptosis in tumors | Significant increased population of phospho-histone H3 positive cells | all Taxol® treated animals demonstrated tumor relapse | significantly inhibited RH4 tumor growth, with tumor regression observed after the 2nd dosage on day 8 | 13.6 ± 2.07 days | 34 days | 1 out of 7 | > 31 days | 11 to 15 days | only slightly increased phospho-histone H3 positive cells | – | –
2 | Nc1ccn([C@@H]2O[C@H](CO)[C@@H](O)C2(F)F)c(=O)n1 [gemcitabine] | – | – | – | – | – | – | – | – | – | – | – | – | – | appeared additive | no additive benefit

Reference: US20160015817A1, “METHODS OF TREATMENT OF PEDIATRIC SOLID TUMOR” (priority 2013, published 2016)
